In US5716982A, “Retinoids and methods of use of same” (priority 1995, dated 1998):
Like-named read-outs stand apart in the source and are kept apart here.

Columns and labels:
[1] = system: Human promyelocytic leukemia HL-60 cells; assay: Cell differentiation of HL-60 cells, nitroblue tetrazolium (NBT) reduction; format: cell-based; conditions: for EC50: Homo sapiens; for NBT (+) %: HL-60
Method: Human promyelocytic leukemia HL-60 cells were cultured in RPMI-1640 medium supplemented by 10% heat-inactivated calf serum and 100 U/ml of penicillin plus 100 μg/ml of streptomycin. The flasks containing cells and medium were incubated in an incubator with 5% CO2 at 37° C. Log phase cells were seeded into the medium at a concentration of 1.2×10^5to 1.4×10^5 cells per ml and cultured in flasks containing 5 ml of medium. Each group consisted of three flasks. Different concentrations of coumarin-retinoids were added. At intervals following the addition of coumarin-retinoids to the cultures, a small portion of cells was removed and live cells were counted under a light microscope using a dye-exclusionmethod with trypan blue. Cell differentiation was judged in terms of morphology and nitroblue tetrazolium (NBT) reduction.
For a determination of NBT reducing activity, a portion of the coumarin-retinoid-treated cells was removed at intervals following treatment and centrifuged. After centrifugation, 0.5 ml of 0.1% NBT (containing 100 ng TPA) was added to each tube. The contents of the test tubes were then incubated for 1 hour at 37° C. Cell smears were prepared from the cell sediment and stained using the Wright-Giemsa technique. For each smear prepared, 200 cells were isolated for examination under a light microscope with an oil immersion lens. Cells stained with blue-black granules were considered NBT-positive cells. The 50% differentiation or effective concentration (ED50 or EC50) is shown in terms of molar (M) concentration of the […] tested.
(§1) The protocols of Examples 14 and 21 were used, for the NBT and MTT assays, respectively.

HL-60 cells = assay: MTT assay in HL-60 cells; format: cell-based, human; conditions: for inhibition at 10 µM: 10^-5 M; for inhibition at 10 µM / inhibition at 1 µM / inhibition at 0.1 µM / inhibition at 0.01 µM: HL-60; for inhibition at 1 µM: 10^-6 M; for inhibition at 0.1 µM: 10^-7 M; for inhibition at 0.01 µM: 10^-8 M
Method: Human cancer cell lines (KB, A2780, MCF-7, HL-60, A549) were used. For a monolayer culture, 0.5 ml of trypsin solution ([…]) was added to the flasks for digestion. Microtiter plates (96 well) were used for the cell culture and 200 μl of cell suspension (1200 tumor cells) were placed in each well and incubated at 37° C. for 24 hours. Following the addition of the test compound, the control and treated flasks were placed in a CO2 incubator for 5 day culture. For the MTT assay, 200 μl of MTT solution (5 mg in 10 ml of phosphate buffer) plus the medium were added and incubated for another 4 hours. Following incubation, the supernatant was discarded and 200 μl of DMSO was added to each well. With a mild agitation the OD values were determined by the MR 700 Elisa at 570 nm (reference wavelength was 450 nm). The ED50 of the compound and tumor cell survival rate [formula] as percent inhibition were calculated.
as §1

[2] = system: bone abnormalities in mouse fetus; assay: Bone abnormalities in mouse fetus (anti-teratogenicity); format: in vivo
Method: Female mice were examined by vaginal smear the morning after being caged with male mice, and if sperm or a vaginal plug was discovered, then the mice were determined to be pregnant. The retinoids were administered at the dosage indicated starting on the seventh day of pregnancy and continued once a day for the next ten days. On the 20th day after the female mice were determined to be pregnant, they were sacrificed by cervical dislocation. Both sides of the uterus were checked and the number of living embryos, dead embryos, and absorbed embryos were counted. The living embryos were further examined for bone abnormalities.
After the embryos became transparent, they were dissected and their skeletons were checked by observation under a microscope.

[3] = NBT reduction, 50% differentiation, HL-60 (Table 2), read-out: EC50
[4] = Homo sapiens, 120 h, MTT, HL-60 (Table 12), read-out: ED50 (the source's name)
[5] = Homo sapiens, 120 h, HL-60 (Table 15), read-out: MTT ED50
[6] = HL-60 (Table 15), read-out: NBT ED50

CCOC(=O)c1cc(OC(=O)/C=C(C)/C=C/C=C(C)/C=C/C2=C(C)CCCC2(C)C)cc2oc(=O)c(C(C)=O)cc12 [Compound I-11, 3-acetyl-5-ethoxycarbyl-7-retinoyloxy-coumarin]
EC50 [1, 3]: 3 µM

CCc1cc2cc(C(C)=O)c(=O)oc2cc1OC(=O)/C=C(C)/C=C/C=C(C)/C=C/C1=C(C)CCCC1(C)C [Compound I-13]
IC50 (HL-60 cells; [4]): > 10 µM
inhibition at 10 µM (HL-60 cells; Homo sapiens, MTT): 5.5 ± 3.9%
inhibition at 1 µM (HL-60 cells; Homo sapiens, MTT): 4.3 ± 6.1%
inhibition at 0.1 µM (HL-60 cells; Homo sapiens, MTT): 3.5 ± 3.9%

CC1=C(/C=C/C(C)=C/C=C/C(C)=C/C(=O)Oc2cc(=O)oc3ccc(C(C)(C)C)cc23)C(C)(C)CCC1 [Compound I-28, 4-retinoyloxy-6-t-butyl-coumarin]
IC50 (HL-60 cells; [5]): > 10 µM

CC1=C(/C=C/C(C)=C/C=C/C(C)=C/C(=O)Oc2ccc3c(C)cc(=O)oc3c2)C(C)(C)CCC1 [Compound I-32, 4-methyl-7-retinoyloxy-coumarin]
IC50 (HL-60 cells; HL-60 (Table 15), 7200 min, read-out: MTT ED50): 11 µM

CC1=C(/C=C/C(C)=C/C=C/C(C)=C/C(=O)Oc2cc(=O)oc3ccc(C)cc23)C(C)(C)CCC1 [Compound I-35, 4-retinoyloxy-6-methyl-coumarin]
EC50 [1, 6]: 6.7 µM
IC50 (HL-60 cells; [5]): 2.6 µM

CC(=O)c1cc2c(C(=O)O)cc(OC(=O)/C=C(C)/C=C/C=C(C)/C=C/C3=C(C)CCCC3(C)C)cc2oc1=O [Compound I-4, 3-acetyl-5-carboxy-7-retinoyloxy coumarin]
EC50 [1, 3]: 0.07 µM

CCCCCCc1cc2cc(C(C)=O)c(=O)oc2c(C)c1OC(=O)/C=C(C)/C=C/C=C(C)/C=C/C1=C(C)CCCC1(C)C [Compound I-14]
IC50 (HL-60 cells; [4]): 9 µM
inhibition at 10 µM (HL-60 cells; Homo sapiens, MTT): 52.6 ± 1.3%
inhibition at 1 µM (HL-60 cells; Homo sapiens, MTT): 30 ± 1.4%
inhibition at 0.1 µM (HL-60 cells; Homo sapiens, MTT): 10.4 ± 2.4%

CCCCCCCCCCCCOC(=O)c1cc(OC(=O)/C=C(C)/C=C/C=C(C)/C=C/C2=C(C)CCCC2(C)C)c(OC(=O)/C=C(C)/C=C/C=C(C)/C=C/C2=C(C)CCCC2(C)C)c2oc(=O)c(C(=O)OCC)cc12 [Compound I-12]
EC50 [1, 3]: 0.01 µM

CCOC(=O)c1cc2c(OC(=O)/C=C(C)/C=C/C=C(C)/C=C/C3=C(C)CCCC3(C)C)cc(OC(=O)/C=C(C)/C=C/C=C(C)/C=C/C3=C(C)CCCC3(C)C)cc2oc1=O [Compound I-21]
EC50 [1, 3]: 0.25 µM
IC50 (HL-60 cells; [4]): 1 µM
inhibition at 10 µM (HL-60 cells; Homo sapiens, MTT): 61.2 ± 2.4%
inhibition at 1 µM (HL-60 cells; Homo sapiens, MTT): 49.9 ± 2.5%
inhibition at 0.1 µM (HL-60 cells; Homo sapiens, MTT): 32.5 ± 1.1%
inhibition at 0.01 µM (HL-60 cells; Homo sapiens, MTT): 21.8 ± 3.1%

CC1=C(/C=C/C(C)=C/C=C/C(C)=C/C(=O)Oc2cc(=O)oc3c(C)cccc23)C(C)(C)CCC1 [Compound I-29]
EC50 [1, 6]: > 10 µM
IC50 (HL-60 cells; [5]): 1.9 µM

CC1=C(/C=C/C(C)=C/C=C/C(C)=C/C(=O)Oc2cc(OC(=O)/C=C(C)/C=C/C=C(C)/C=C/C3=C(C)CCCC3(C)C)c3c(C)cc(=O)oc3c2)C(C)(C)CCC1 [Compound I-33, 4-methyl-5,7-diretinoyloxy-coumarin]
EC50 [1, 6]: > 10 µM
IC50 (HL-60 cells; [5]): 3.2 µM

CC(=O)c1cc2c(COC(=O)/C=C(C)/C=C/C=C(C)/C=C/C3=C(C)CCCC3(C)C)cc(OC(=O)/C=C(C)/C=C/C=C(C)/C=C/C3=C(C)CCCC3(C)C)cc2oc1=O [Compound I-7]
EC50 [1, 3]: 0.75 µM

CC(=O)c1cc2c(C)cc(OC(=O)/C=C(C)/C=C/C=C(C)/C=C/C3=C(C)CCCC3(C)C)cc2oc1=O [Compound I-2]
NBT (+) % ([1]; 10^-5 M): 38%
EC50 [1, 3]: 2 µM

CCOC(=O)c1cc2ccc(OC(=O)/C=C(C)/C=C/C=C(C)/C=C/C3=C(C)CCCC3(C)C)c(C)c2oc1=O [Compound I-15]
EC50 [1, 3]: 0.26 µM
IC50 (HL-60 cells; [4]): 0.9 µM
inhibition at 10 µM (HL-60 cells; Homo sapiens, MTT): 54.5 ± 2.8%
inhibition at 1 µM (HL-60 cells; Homo sapiens, MTT): 48.8 ± 1.3%
inhibition at 0.1 µM (HL-60 cells; Homo sapiens, MTT): 34.6%
inhibition at 0.01 µM (HL-60 cells; Homo sapiens, MTT): 16.2 ± 2.4%

CC1=C(/C=C/C(C)=C/C=C/C(C)=C/C(=O)Oc2ccc3c(C)cc(=O)oc3c2OC(=O)/C=C(C)/C=C/C=C(C)/C=C/C2=C(C)CCCC2(C)C)C(C)(C)CCC1 [Compound I-36, 4-methyl-7,8-diretinoyloxy-coumarin]
EC50 [1, 6]: > 10 µM
IC50 (HL-60 cells; [5]): 3.2 µM

CC(=O)c1cc2c(OC(=O)/C=C(C)/C=C/C=C(C)/C=C/C3=C(C)CCCC3(C)C)c(C(=O)O)ccc2oc1=O [Compound I-8]
EC50 [1, 3]: 0.059 µM
IC50 (HL-60 cells; [4]): 0.1 µM
inhibition at 10 µM (HL-60 cells; Homo sapiens, MTT): 63.9 ± 2.9%
inhibition at 1 µM (HL-60 cells; Homo sapiens, MTT): 54 ± 1.9%
inhibition at 0.1 µM (HL-60 cells; Homo sapiens, MTT): 50.5 ± 0.9%
inhibition at 0.01 µM (HL-60 cells; Homo sapiens, MTT): 29.7 ± 1.4%

CC(=O)c1cc2ccc(OC(=O)/C=C(C)/C=C/C=C(C)/C=C/C3=C(C)CCCC3(C)C)c(C)c2oc1=O [Compound I-3]
EC50 [1, 3]: 0.8 µM

CC1=C(/C=C/C(C)=C/C=C/C(C)=C/C(=O)Oc2ccc3c(C)cc(=O)oc3c2C)C(C)(C)CCC1 [Compound I-30]
IC50 (HL-60 cells; [5]): > 10 µM

CCc1cc2c(C)cc(=O)oc2cc1OC(=O)/C=C(C)/C=C/C=C(C)/C=C/C1=C(C)CCCC1(C)C [Compound I-31, 4-methyl-6-ethyl-7-retinoyloxy-coumarin]
IC50 (HL-60 cells; [5]): > 10 µM

CCCCCCc1cc2c(C)cc(=O)oc2cc1OC(=O)/C=C(C)/C=C/C=C(C)/C=C/C1=C(C)CCCC1(C)C [Compound I-34, 4-methyl-6-hexyl-7-retinoyloxy-coumar in]
IC50 (HL-60 cells; [5]): > 10 µM

CC1=C(/C=C/C(C)=C/C=C/C(C)=C/C(=O)Oc2cc3oc(=O)c(C(N)=O)cc3cc2Cl)C(C)(C)CCC1 [Compound I-27]
EC50 [1, 3]: 0.55 µM

CC(=O)c1cc2ccc(OC(=O)/C=C(C)/C=C/C=C(C)/C=C/C3=C(C)CCCC3(C)C)c(OC(=O)/C=C(C)/C=C/C=C(C)/C=C/C3=C(C)CCCC3(C)C)c2oc1=O [Compound I-9]
EC50 [1, 3]: 0.065 µM
Delayed Calcification, Occipital delay/fetus ([2]; 20 mg/kg): 0/75
Delayed Calcification, Sternum delay/fetus ([2]; 20 mg/kg): 0/75
Delayed Calcification, Occipital delay/fetus ([2]; 40 mg/kg): 3/77
Delayed Calcification, Sternum delay/fetus ([2]; 40 mg/kg): 2/77
IC50 (HL-60 cells; [4]): 0.95 µM
inhibition at 10 µM (HL-60 cells; Homo sapiens, MTT): 61.5 ± 1.9%
inhibition at 1 µM (HL-60 cells; Homo sapiens, MTT): 50.6 ± 0.5%
inhibition at 0.1 µM (HL-60 cells; Homo sapiens, MTT): 48.8 ± 0.5%
inhibition at 0.01 µM (HL-60 cells; Homo sapiens, MTT): 28 ± 5.2%

CCOC(=O)c1cc2c(C(=O)O)cc(OC(=O)/C=C(C)/C=C/C=C(C)/C=C/C3=C(C)CCCC3(C)C)cc2oc1=O [Compound I-19]
NBT (+) % ([1]; 10^-4 M): 84%
NBT (+) % ([1]; 10^-5 M): 5%
NBT (+) % ([1]; 10^-7 M): 92%
EC50 [1, 3]: 9 µM

CC1=C(/C=C/C(C)=C/C=C/C(C)=C/C(=O)Oc2cc(C(=O)O)c3cc(C(N)=O)c(=O)oc3c2)C(C)(C)CCC1 [Compound I-26]
EC50 [1, 3]: 0.08 µM
IC50 (HL-60 cells; [4]): 0.9 µM
inhibition at 10 µM (HL-60 cells; Homo sapiens, MTT): 68.7 ± 0.2%
inhibition at 1 µM (HL-60 cells; Homo sapiens, MTT): 52.6 ± 0.5%
inhibition at 0.1 µM (HL-60 cells; Homo sapiens, MTT): 43.8 ± 1.3%
inhibition at 0.01 µM (HL-60 cells; Homo sapiens, MTT): 9.4 ± 3.7%

CCOC(=O)c1cc2ccc(OC(=O)/C=C(C)/C=C/C=C(C)/C=C/C3=C(C)CCCC3(C)C)cc2oc1=O [Compound I-17]
EC50 [1, 3]: 1 µM

CCOC(=O)c1cc2cc(Cl)c(OC(=O)/C=C(C)/C=C/C=C(C)/C=C/C3=C(C)CCCC3(C)C)cc2oc1=O [Compound I-18]
EC50 [1, 3]: 10 µM
